Assay results taken from US20060069132A1, “Azolecarboxamide herbicides” (priority 2004, published 2006).

Legend:
Surinam grass = assay: Test C pre-/postemergence herbicide test; format: in vivo, Urochloa decumbens; conditions: preemergence
Method in brief: (§1)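 Greenhouse-grown plants were evaluated visually 12 to 14 days after treatment, with 100 meaning complete control and 0 no effect. Application was preemergence, or postemergence at 2 to 18 cm.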

redroot pigweed = assay: Test A pre-/postemergence herbicide test; format: in vivo, Amaranthus retroflexus
Method in brief: (§2)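 Plants are held in greenhouse about ten days after treatment, then compared with untreated controls and scored 0 (no effect) to 100 (complete control). Preemergence dosing is a directed soil spray on sown sandy loam; postemergence dosing is spray to runoff at 2–10 cm height.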

bermudagrass = assay: Test C pre-/postemergence herbicide test; format: in vivo, Cynodon dactylon
Method in brief: as §1

large crabgrass = assay: Test A pre-/postemergence herbicide test; format: in vivo, Digitaria sanguinalis
Method in brief: as §2

barnyardgrass [1] = assay: Test A pre-/postemergence herbicide test; format: in vivo, Echinochloa crus-galli
Method in brief: as §2

johnsongrass = assay: Test C pre-/postemergence herbicide test; format: in vivo, Sorghum halepense; conditions: preemergence
Method in brief: as §1

morningglory = assay: Test C pre-/postemergence herbicide test; format: in vivo, Ipomoea coccinea; set-up: key to Plant response rating, Morningglory: 0 = no effect, 100 = complete control; conditions: preemergence
Method in brief: as §1

woolly cupgrass = assay: Test C pre-/postemergence herbicide test; format: in vivo, Eriochloa villosa; conditions: preemergence
Method in brief: as §1

barnyardgrass [2] = assay: Test C flooded paddy test; format: in vivo, Echinochloa crus-galli
Method in brief: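 Injury scored visually against controls on a 0 (no effect) to 100 (complete control) scale, 12 to 14 days after treatment in greenhouse. Flooded paddy plants treated at 2-leaf stage; postemergence plants at 1- to 4-leaf stage, 2 to 18 cm tall.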

giant foxtail = assay: Test A pre-/postemergence herbicide test; format: in vivo, Setaria faberi
Method in brief: as §2

[3] = Postemergence, 500 g ai/ha, 0 to 100 scale, 0 no effect, 100 complete control
[4] = Postemergence, 2000 g ai/ha, 0 to 100 scale, 0 no effect, 100 complete control
[5] = Preemergence, 2000 g ai/ha, visual rating, 0 to 100 scale (0 no effect, 100 complete control)
[6] = preemergence, 500 g ai/ha, visual injury, 0 to 100 scale (0 no effect, 100 complete control)
[7] = 125 g ai/ha, scale 0 (no effect) to 100 (complete control), visual, 12 to 14 days

Structure (SMILES): CCNC(=O)c1ccc(F)c(NC(=O)c2cc(C3(C)CC3)nn2CC)c1 [Compound 300]
- Plant response rating, Surinam Grass (Surinam grass; 62 g ai/ha, scale 0 to 100): 30
- Plant response rating, Surinam Grass (Surinam grass; 250 g ai/ha, scale 0-100): 100
- Pigweed plant response rating (redroot pigweed; [3]): 90
- Plant response rating, Pigweed (redroot pigweed; [4]): 100
- Pigweed plant response rating (redroot pigweed; [5]): 100
- Pigweed plant response rating (redroot pigweed; [6]): 95
- Plant response rating, Bermudagrass (bermudagrass; 31 g ai/ha, scale 0 to 100, 0 no effect, 100 complete control, last section of Table C (species set of preemergence test)): 80
- Plant response rating, Bermudagrass (bermudagrass; 62 g ai/ha, preemergence, scale 0 to 100, 0 no effect, 100 complete control): 95
- Plant response rating, Bermudagrass (bermudagrass; 125 g ai/ha, scale 0 (no effect) to 100 (complete control), visual, 12 to 14 days, preemergence): 100
- Plant response rating, Bermudagrass (bermudagrass; 250 g ai/ha, scale 0-100, preemergence): 100
- Crabgrass, Large plant response rating (large crabgrass; [3]): 55
- Plant response rating, Crabgrass, Large (large crabgrass; [4]): 90
- Crabgrass, Large plant response rating (large crabgrass; [5]): 100
- Crabgrass, Large plant response rating (large crabgrass; [6]): 90
- Barnyardgrass plant response rating (barnyardgrass [1]; [3]): 75
- Plant response rating, Barnyardgrass (barnyardgrass [1]; [4]): 90
- Barnyardgrass plant response rating (barnyardgrass [1]; [5]): 100
- Barnyardgrass plant response rating (barnyardgrass [1]; [6]): 90
- Plant response rating, Johnsongrass (johnsongrass; 62 g ai/ha, scale 0 to 100): 60
- Plant response rating, Johnsongrass (johnsongrass; [7]): 85
- Plant response rating, Johnsongrass (johnsongrass; 250 g ai/ha, scale 0-100): 95
- Plant response rating, Morningglory (morningglory; 62 g ai/ha, scale 0 to 100): 5
- Plant response rating, Morningglory (morningglory; [7]): 40
- Plant response rating, Morningglory (morningglory; 250 g ai/ha, scale 0-100): 40
- Plant response rating, Cupgrass, Woolly (woolly cupgrass; 62 g ai/ha, scale 0 to 100): 20
- Plant response rating, Cupgrass, Woolly (woolly cupgrass; [7]): 50
- Plant response rating, Cupgrass, Woolly (woolly cupgrass; 250 g ai/ha, scale 0-100): 60
- Barnyardgrass plant response rating (barnyardgrass [2]; 62 g ai/ha, scale 0 to 100 (0 no effect, 100 complete control)): 35
- Barnyardgrass plant response rating (barnyardgrass [2]; 125 g ai/ha, scale 0 to 100 (0 no effect, 100 complete control)): 50
- Barnyardgrass plant response rating (barnyardgrass [2]; 250 g ai/ha, scale of 0 to 100, 0 is no effect, 100 is complete control): 90
- Plant response rating, Barnyardgrass (barnyardgrass [2]; 500 g ai/ha, visual rating after 12 to 14 days, scale 0 to 100 (0 no effect, 100 complete control)): 95
- Foxtail, Giant plant response rating (giant foxtail; [3]): 55
- Plant response rating, Foxtail, Giant (giant foxtail; [4]): 90
- Foxtail, Giant plant response rating (giant foxtail; [5]): 100
- Foxtail, Giant plant response rating (giant foxtail; [6]): 95
